Read-outs that look alike come from different tables or passages of the source.
Tests used:
[1] = system: Puccinia triticina; assay: Wheat brown rust (PUCCRT) disease control on wheat seedlings; format: in vivo; settings: read-out: PUCCRT disease control rating (% Control); for pest or weed control at 100 ppm: high volume application; for pest or weed control at 121.5 g/ha: 121.5 g/H, low volume (track spray) application
[2] = system: Septoria tritici; assay: Leaf blotch of wheat (SEPTTR) disease control on wheat seedlings; format: in vivo, Mycosphaerella graminicola (anamorph Septoria tritici); settings: Zymoseptoria tritici, read-out: SEPTTR disease control rating (% Control); for pest or weed control at 100 ppm: high volume application; for pest or weed control at 121.5 g/ha: 121.5 g/H, low volume (track spray) application
Protocol: Evaluation of Fungicidal Activity: Leaf Blotch of Wheat (Mycosphaerella graminicola; Anamorph: Septoria tritici; Bayer Code […]) Technical grades of materials were dissolved in acetone, which were then mixed with nine volumes of water containing 110 ppm Triton X-100. The fungicide solutions were applied onto wheat seedlings using an automated booth sprayer to run-off. All sprayed plants were allowed to air dry prior to further handling. All fungicides were evaluated using the aforementioned method for their activity vs. all target diseases. Wheat leaf blotch and brown rust activity were also evaluated using track spray applications, in which case the fungicides were formulated as EC formulations, containing 0.1% Trycol 5941 in the spray solutions. Wheat plants (variety Yuma) were grown from seed in a greenhouse in 50% mineral soil/50% soil-less Metro mix until the first leaf was fully emerged, with 7-10 seedlings per pot. These plants were inoculated with an aqueous spore suspension of Septoria tritici either prior to or after fungicide treatments. After inoculation the plants were kept in 100% relative humidity (one day in a dark dew chamber followed by two to three days in a lighted dew chamber at 20° C.) to permit spores to germinate and infect the leaf. The plants were then transferred to a greenhouse set at 20° C. for disease to develop. When disease symptoms were fully expressed on the 1st leaves of untreated plants, infection levels were assessed on a scale of 0 to 100 percent disease severity. Percent disease control was calculated using the ratio of disease severity on treated plants relative to untreated plants.

| SMILES | pest or weed control at 100 ppm ([1]; 24 h, 1DP (1 Day Protectant)) | pest or weed control at 100 ppm ([1]; 72 h, 3DC (3 Day Curative)) | pest or weed control at 100 ppm ([2]; 24 h, 1DP (1 Day Protectant)) | pest or weed control at 100 ppm ([2]; 72 h, 3DC (3 Day Curative)) | pest or weed control at 121.5 g/ha ([1]; 24 h, 1DP (1 Day Protectant)) | pest or weed control at 121.5 g/ha ([1]; 72 h, 3DC (3 Day Curative)) | pest or weed control at 121.5 g/ha ([2]; 24 h, 1DP (1 Day Protectant)) | pest or weed control at 121.5 g/ha ([2]; 72 h, 3DC (3 Day Curative)) |
| --- | --- | --- | --- | --- | --- | --- | --- | --- |
| CCCC[C@H]1[C@H](C)OC(=O)[C@@H](NC(=O)c2nccc(OC)c2O)COC[C@@H]1OC(=O)C(C)C [Compound 58] | > 70% | < 70% | < 70% | > 70% |  |  |  |  |
| CCCC[C@H]1[C@H](C)OC(=O)[C@@H](NC(=O)c2nccc(OC)c2O)COC[C@@H]1Oc1ccccc1 [Compound 45] | > 70% | < 70% | > 70% | < 70% |  |  |  |  |
| COc1ccnc(C(=O)N[C@H]2COC[C@H](OC(=O)C3CC3)[C@@H](Cc3ccc(F)cc3)[C@H](C)OC2=O)c1O [Compound 25] | > 70% | > 70% | > 70% | > 70% |  |  |  |  |
| COc1ccnc(C(=O)N[C@H]2COC[C@H](OCc3ccccc3)[C@@H](Cc3ccc(F)cc3)[C@H](C)OC2=O)c1OCOC(C)=O [Compound 30] |  |  |  |  | > 70% | > 70% | > 70% | > 70% |
| COc1ccnc(C(=O)N[C@H]2COC[C@H](OC(=O)C3CC3)[C@@H](CCC(C)C)[C@H](C)OC2=O)c1OC(C)=O [Compound 68, (3S,7R,8S,9S)-3-(3-acetoxy-4-methoxypicolinamido)-8-isopentyl-9-methyl-2-oxo-1,5-dioxonan-7-yl cyclopropanecarboxylate] |  |  |  |  | > 70% | > 70% | < 70% | > 70% |
| COc1ccnc(C(=O)N[C@H]2COC[C@H](OC(=O)C3CC3)[C@@H](CCC(C)C)[C@H](C)OC2=O)c1O [Compound 36] | < 70% | < 70% | < 70% | > 70% |  |  |  |  |
| CCCC[C@H]1[C@H](C)OC(=O)[C@@H](NC(=O)c2nccc(OC)c2OCOC(C)=O)COC[C@@H]1OCCCC(F)(F)F [Compound 48] |  |  |  |  | > 70% | > 70% | > 70% | > 70% |
| CCCO[C@H]1COC[C@H](NC(=O)c2nccc(OC)c2OCOC(C)=O)C(=O)O[C@@H](C)[C@@H]1CCC(C)C [Compound 18, ((2-(((3S,7R,8S,9S)-8-isopentyl-9-methyl-2-oxo-7-propoxy-1,5-dioxonan-3-yl)carbamoyl)-4-methoxypyridin-3-yl)oxy)methyl acetate] |  |  |  |  | > 70% | > 70% | < 70% | > 70% |
| COc1ccnc(C(=O)N[C@H]2COC[C@H](OCc3ccccc3)[C@@H](Cc3ccc(F)cc3)[C@H](C)OC2=O)c1O [Compound 38] | > 70% | > 70% | > 70% | > 70% |  |  |  |  |
| COc1ccnc(C(=O)N[C@H]2COC[C@H](OC(=O)C3CC3)[C@@H](Cc3ccc(F)cc3)[C@H](C)OC2=O)c1OCOC(C)=O [Compound 59] |  |  |  |  | > 70% | > 70% | > 70% | > 70% |
| COc1ccnc(C(=O)N[C@H]2COC[C@H](OCC3CC3)[C@@H](Cc3ccc(F)cc3)[C@H](C)OC2=O)c1O [Compound 24] | > 70% | > 70% | > 70% | > 70% |  |  |  |  |
| COc1ccnc(C(=O)N[C@H]2COC[C@H](Oc3ccccc3)[C@@H](Cc3ccccc3)[C@H](C)OC2=O)c1OC(C)=O [Compound 81] |  |  |  |  | > 70% | > 70% | > 70% | > 70% |
| COc1ccnc(C(=O)N[C@H]2COC[C@H](Oc3ccc(C)cc3)[C@@H](Cc3ccc(F)cc3)[C@H](C)OC2=O)c1OCOC(C)=O [Compound 64] |  |  |  |  | > 70% | < 70% | > 70% | > 70% |
